Data: patent US8952157B2, “Apoptosis-inducing agents for the treatment of cancer and immune and autoimmune diseases” (AbbVie Inc., priority 2008, dated 2015)

Biological target: GST-Bcl-2 (Homo sapiens (Human), UniProt P10415)
Assay: Time Resolved-Fluorescence Resonance Energy Transfer (TR-FRET) Bcl-2 binding assay
Conditions: GST-Bcl-2 1 nM, F-Bak peptide probe 100 nM, Tb-anti-GST antibody 1 nM; Ki by Wang's equation
Procedure: Determination of the utility of compounds having Formula (I) as binders to and inhibitors of anti-apoptotic Bcl-2 proteins was performed using the Time Resolved-Fluorescence Resonance Energy Transfer (TR-FRET) Assay. Tb-anti-GST antibody was purchased from Invitrogen (Catalog No. PV4216).
(§1) Representative compounds were serially diluted in dimethyl sulfoxide (DMSO) starting at 50 μM (2× starting concentration; 10% DMSO) and 10 μL were transferred into a 384-well plate. The samples are then mixed on a shaker for 1 minute and incubated for an additional 3 hours at room temperature. For each assay, the probe/antibody and protein/probe/antibody were included on each assay plate as negative and positive controls, respectively. Fluorescence was measured on the Envision (Perkin Elmer) using a 340/35 nm excitation filter and 520/525 (F-Bak peptide) and 495/510 nm (Tb-labeled anti-Histidine antibody) emission filters.
as §1, with “The” for “Representative compounds were serially diluted in dimethyl sulfoxide (DMSO) starting at 50 μM (2× starting concentration; 10% DMSO) and 10 μL were transferred into a 384-well plate. The”, “were” for “are”
The inhibition constant (Ki) is the dissociation constant of an enzyme-inhibitor complex or a protein/small molecule complex, wherein the small molecule is inhibiting binding of one protein to another protein. So a large Ki value indicates a low binding affinity and a small Ki value indicates a high binding affinity.

GST-Bcl-2, sequence (P10415 whole entry): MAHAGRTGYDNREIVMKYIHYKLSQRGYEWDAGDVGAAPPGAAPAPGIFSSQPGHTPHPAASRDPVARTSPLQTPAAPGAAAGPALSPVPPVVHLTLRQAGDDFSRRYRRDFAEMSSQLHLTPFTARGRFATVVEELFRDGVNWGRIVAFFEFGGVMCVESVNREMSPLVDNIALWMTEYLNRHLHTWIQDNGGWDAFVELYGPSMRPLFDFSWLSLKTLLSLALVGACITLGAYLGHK

Structure (SMILES) | Ki [nM]
CC1(C)CCC(CN2CCN(c3ccc(C(=O)NS(=O)(=O)c4ccc(NCCCN5CCOCC5)c([N+](=O)[O-])c4)c(Oc4cccc(Cl)c4)c3)CC2)=C(c2ccc(Cl)cc2)C1 [Example 128, 2-(3-chlorophenoxy)-4-(4-{[2-(4-chlorophenyl)-4,4-dimethylcyclohex-1-en-1-yl]methyl}piperazin-1-yl)-N-({4-[(3-morpholin-4-ylpropyl)amino]-3-nitrophenyl}sulfonyl)benzamide] | 0.064
CN1CCC(Nc2ccc(S(=O)(=O)NC(=O)c3ccc(N4CCN(CC5=C(c6ccc(Cl)cc6)CC(C)(C)CC5)CC4)cc3Oc3ccc(O)cc3Cl)cc2[N+](=O)[O-])CC1 [Example 207, 2-(2-chloro-4-hydroxyphenoxy)-4-(4-{[2-(4-chlorophenyl)-4,4-dimethylcyclohex-1-en-1-yl]methyl}piperazin-1-yl)-N-({4-[(1-methylpiperidin-4-yl)amino]-3-nitrophenyl}sulfonyl)benzamide] | 0.074
CC1(C)CCC(CN2CCN(c3ccc(C(=O)NS(=O)(=O)c4ccc(NCC5CCOCC5)c([N+](=O)[O-])c4)c(Oc4cncc(NC(=O)OC(C)(C)C)c4)c3)CC2)=C(c2ccc(Cl)cc2)C1 [Example 278, tert-butyl 5-(5-(4-{[2-(4-chlorophenyl)-4,4-dimethylcyclohex-1-en-1-yl]methyl}piperazin-1-yl)-2-{[({3-nitro-4-[(tetrahydro-2H-pyran-4-ylmethyl)amino]phenyl}sulfonyl)amino]carbonyl}phenoxy)pyridin-3-ylcarbamate] | 40
CC1(C)CCC(CN2CCN(c3ccc(C(=O)NS(=O)(=O)c4ccc(NCC5CCOC5)c([N+](=O)[O-])c4)c(Oc4cc5cc[nH]c5cc4F)c3)CC2)=C(c2ccc(Cl)cc2)C1 (stereo not drawn) [Example 332, 4-(4-{[2-(4-chlorophenyl)-4,4-dimethylcyclohex-1-en-1-yl]methyl}piperazin-1-yl)-2-[(6-fluoro-1H-indol-5-yl)oxy]-N-({3-nitro-4-[(tetrahydrofuran-3-ylmethyl)amino]phenyl}sulfonyl)benzamide] | 0.034
CCN(Cc1ccc(Oc2cc(N3CCN(Cc4ccccc4-c4ccc(Cl)cc4)CC3)ccc2C(=O)NS(=O)(=O)c2ccc(NCC3CCOCC3)c([N+](=O)[O-])c2)cc1)C(=O)OC(C)(C)C [Example 78, tert-butyl 4-(5-(4-((4′-chloro-1,1′-biphenyl-2-yl)methyl)piperazin-1-yl)-2-((((3-nitro-4((tetrahydro-2H-pyran-4-ylmethyl)amino)phenyl)sulfonyl)amino)carbonyl)phenoxy)benzyl(ethyl)carbamate] | > 1200
COc1cc2[nH]ccc2cc1Oc1cc(N2CCN(CC3=C(c4ccc(Cl)cc4)CC(C)(C)CC3)CC2)ccc1C(=O)NS(=O)(=O)c1ccc(NC2CCN(C3CCOCC3)CC2)c([N+](=O)[O-])c1 [Example 227, 4-(4-{[2-(4-chlorophenyl)-4,4-dimethylcyclohex-1-en-1-yl]methyl}piperazin-1-yl)-2-[(6-methoxy-1H-indol-5-yl)oxy]-N-({3-nitro-4-[(1-tetrahydro-2H-pyran-4-ylpiperidin-4-yl)amino]phenyl}sulfonyl)benzamide] | 0.174
CN(C)CCCNc1ccc(S(=O)(=O)NC(=O)c2ccc(N3CCN(CC4=C(c5ccc(Cl)cc5)CC(C)(C)CC4)CC3)cc2Oc2cccc(F)c2)cc1[N+](=O)[O-] [Example 138, 4-(4-{[2-(4-chlorophenyl)-4,4-dimethylcyclohex-1-en-1-yl]methyl}piperazin-1-yl)-N-[(4-{[3-(dimethylamino)propyl]amino}-3-nitrophenyl)sulfonyl]-2-(3-fluorophenoxy)benzamide] | 0.016
CC1(C)CCC(CN2CCN(c3ccc(C(=O)NS(=O)(=O)c4ccc(NCC5CCOCC5)c([N+](=O)[O-])c4)c(Oc4ccnc(N)c4)c3)CC2)=C(c2ccc(Cl)cc2)C1 [Example 282, 2-[(2-aminopyridin-4-yl)oxy]-4-(4-{[2-(4-chlorophenyl)-4,4-dimethylcyclohex-1-en-1-yl]methyl}piperazin-1-yl)-N-({3-nitro-4-[(tetrahydro-2H-pyran-4-ylmethyl)amino]phenyl}sulfonyl)benzamide] | 1.01
CN1CCC(Nc2ccc(S(=O)(=O)NC(=O)c3ccc(N4CCN(CC5=C(c6ccc(Cl)cc6)CC(C)(C)C5)CC4)cc3Oc3ccccc3Cl)cc2[N+](=O)[O-])CC1 [Example 62, 2-(2-chlorophenoxy)-4-(4-((2-(4-chlorophenyl)-4,4-dimethylcyclopent-1-en-1-yl)methyl)piperazin-1-yl)-N-((4-((1-methylpiperidin-4-yl)amino)-3-nitrophenyl)sulfonyl)benzamide] | 0.227
CC1(C)CCC(CN2CCN(c3ccc(C(=O)NS(=O)(=O)c4ccc(NC5CCN(C6CC6)CC5)c([N+](=O)[O-])c4)c(Oc4cccc(Cl)c4)c3)CC2)=C(c2ccc(Cl)cc2)C1 [Example 119, 2-(3-chlorophenoxy)-4-(4-{[2-(4-chlorophenyl)-4,4-dimethylcyclohex-1-en-1-yl]methyl}piperazin-1-yl)-N-({4-[(1-cyclopropylpiperidin-4-yl)amino]-3-nitrophenyl}sulfonyl)benzamide] | 0.156
CN1CCC(Nc2ccc(S(=O)(=O)NC(=O)c3ccc(N4CCN(CC5=C(c6ccc(Cl)cc6)CC(C)(C)CC5)CC4)cc3Oc3ccccc3C(=O)N(C)C)cc2[N+](=O)[O-])CC1 [Example 214, 2-(5-(4-((2-(4-chlorophenyl)-4,4-dimethylcyclohex-1-enyl)methyl)piperazin-1-yl)-2-(4-(1-methylpiperidin-4-ylamino)-3-nitrophenylsulfonylcarbamoyl)phenoxy)-N,N-dimethylbenzamide] | 0.221
CC1(C)CCC(CN2CCN(c3ccc(C(=O)NS(=O)(=O)c4ccc(OCC5COCCO5)c([N+](=O)[O-])c4)c(Oc4cc5cc[nH]c5cc4F)c3)CC2)=C(c2ccc(Cl)cc2)C1 (stereo not drawn) [Example 285, 4-(4-{[2-(4-chlorophenyl)-4,4-dimethylcyclohex-1-en-1-yl]methyl}piperazin-1-yl)-N-{[4-(1,4-dioxan-2-ylmethoxy)-3-nitrophenyl]sulfonyl}-2-[(6-fluoro-1H-indol-5-yl)oxy]benzamide] | 0.037
CC1(C)CCC(CN2CCN(c3ccc(C(=O)NS(=O)(=O)c4ccc(OCC5(F)CCOCC5)c(Cl)c4)c(Oc4cnc(N)c(Cl)c4)c3)CC2)=C(c2ccc(Cl)cc2)C1 [Example 404, 2-[(6-amino-5-chloropyridin-3-yl)oxy]-N-({3-chloro-4-[(4-fluorotetrahydro-2H-pyran-4-yl)methoxy]phenyl}sulfonyl)-4-(4-{[2-(4-chlorophenyl)-4,4-dimethylcyclohex-1-en-1-yl]methyl}piperazin-1-yl)benzamide] | 0.069
CC1(C)CCC(CN2CCN(c3ccc(C(=O)NS(=O)(=O)c4ccc(NCC5CCOCC5)c([N+](=O)[O-])c4)c(Oc4cnc(N)c(C#N)c4)c3)CC2)=C(c2ccc(Cl)cc2)C1 [Example 352, 2-[(6-amino-5-cyanopyridin-3-yl)oxy]-4-(4-{[2-(4-chlorophenyl)-4,4-dimethylcyclohex-1-en-1-yl]methyl}piperazin-1-yl)-N-({3-nitro-4-[(tetrahydro-2H-pyran-4-ylmethyl)amino]phenyl}sulfonyl)benzamide] | 0.079
CC1(C)CC(c2ccc(Cl)cc2)=C(CN2CCN(c3ccc(C(=O)NS(=O)(=O)c4cnc(OCC5CCC(F)(F)CC5)c(Cl)c4)c(Oc4cc5cc[nH]c5cc4F)c3)CC2)CO1 [Example 410, N-({5-chloro-6-[(4,4-difluorocyclohexyl)methoxy]pyridin-3-yl}sulfonyl)-4-(4-{[4-(4-chlorophenyl)-6,6-dimethyl-5,6-dihydro-2H-pyran-3-yl]methyl}piperazin-1-yl)-2-[(6-fluoro-1H-indol-5-yl)oxy]benzamide] | < 0.01
CC1(C)CCC(CN2CCN(c3ccc(C(=O)NS(=O)(=O)c4ccc(NC5CCN(C6CCOCC6)CC5)c([N+](=O)[O-])c4)c(Nc4ccccc4Cl)c3)CC2)=C(c2ccc(Cl)cc2)C1 [Example 226, 2-[(2-chlorophenyl)amino]-4-(4-{[2-(4-chlorophenyl)-4,4-dimethylcyclohex-1-en-1-yl]methyl}piperazin-1-yl)-N-({3-nitro-4-[(1-tetrahydro-2H-pyran-4-ylpiperidin-4-yl)amino]phenyl}sulfonyl)benzamide] | 7.59
CN1CCC(O)(CNc2ccc(S(=O)(=O)NC(=O)c3ccc(N4CCN(CC5=C(c6ccc(Cl)cc6)CC(C)(C)CC5)CC4)cc3Oc3ccccc3Cl)cc2[N+](=O)[O-])CC1 [Example 192, 2-(2-chlorophenoxy)-4-(4-{[2-(4-chlorophenyl)-4,4-dimethylcyclohex-1-en-1-yl]methyl}piperazin-1-yl)-N-[(4-{[(4-hydroxy-1-methylpiperidin-4-yl)methyl]amino}-3-nitrophenyl)sulfonyl]benzamide] | 0.024
CC1(C)CCC(CN2CCN(c3ccc(C(=O)NS(=O)(=O)c4cnc(OCCN5CCOCC5)c(C#N)c4)c(Oc4cc5cc[nH]c5cc4F)c3)CC2)=C(c2ccc(Cl)cc2)C1 [Example 310, 4-(4-{[2-(4-chlorophenyl)-4,4-dimethylcyclohex-1-en-1-yl]methyl}piperazin-1-yl)-N-{[5-cyano-6-(2-morpholin-4-ylethoxy)pyridin-3-yl]sulfonyl}-2-[(6-fluoro-1H-indol-5-yl)oxy]benzamide] | 0.155
